Each structure is given as a SMILES string.

We go through four compounds from BindingDB's records for doi:10.1016/j.bmcl.2009.09.046 (Ligand Pharmaceuticals, 2009).

The assay can be described thus: Inhibition of ROCK1 in human THP1 cells assessed as inhibition of MCP1-induced cell migration.
As a reminder, the IC50 is the concentration that gives 50% inhibition. Regarding `c1ccc2c(c1)CC(Oc1nc(Nc3ccncc3)nc(N3CCNCC3)n1)C2` [4-(2,3-dihydro-1H-inden-2-yloxy)-6-(piperazin-1-yl)-N-(pyridin-4-yl)-1,3,5-triazin-2-amine], the IC50 is 0.057 µM.

Take `C[C@@H]1CN(c2nc(Nc3ccncc3)nc(NC3Cc4ccccc4C3)n2)CCN1` [(R)-N2-(2,3-dihydro-1H-inden-2-yl)-6-(3-methylpiperazin-1-yl)-N4-(pyridin-4-yl)-1,3,5-triazine-2,4-diamine]: the half-maximal inhibitory concentration (IC50) was 0.026 µM.

Take `c1ccc2c(c1)CC(Nc1cc(Nc3ccncc3)nc(N3CCNCC3)n1)C2` [N4-(2,3-dihydro-1H-inden-2-yl)-2-(piperazin-1-yl)-N6-(pyridin-4-yl)pyrimidine-4,6-diamine]: the half-maximal inhibitory concentration (IC50) is 0.012 µM.

Take `c1ccc2c(c1)CC(Nc1cc(N3CCNCC3)nc(Nc3ccncc3)n1)C2` [N4-(2,3-dihydro-1H-inden-2-yl)-6-(piperazin-1-yl)-N2-(pyridin-4-yl)pyrimidine-2,4-diamine]: the IC50 was 0.154 µM.
